Data reported in publication PMC7504092, “Synthesis and Antiplasmodial Evaluation of 4-Carboxamido- and 4-Alkoxy-2-Trichloromethyl Quinazolines” (Molecules, 2020).
Read-outs that look alike come from different tables or passages of the source.

Legend:
K1 P. falciparum strain = assay: In vitro antiplasmodial evaluation (SYBR Green I fluorescence-based method); format: cell-based; conditions: for EC50: read-out: PfK1 EC50; for SI (selectivity index = CC50/EC50): CC50 HepG2 / EC50 PfK1; for IC50: K1, Figures 2 and 3, read-out: IC50 P. falci. K1; for activity against P. falciparum (in words): K1 strain
Description: It was maintained in continuous culture as described previously by Trager and Jensen. […] Parasitemia was maintained daily at between 1 and 3%. The P. falciparum drug susceptibility test was carried out by comparing quantities of DNA in treated and control cultures of parasite in human erythrocytes according to an SYBR Green I fluorescence-based method using a 96-well fluorescence plate reader. […] Duplicate assays were performed for each sample. After incubation, plates were frozen at -20 °C for 24 h. […] Fifteen μL of each sample were transferred to 96-well flat bottom non-sterile black plates (Greiner Bio-one) already containing 15 μL of the SYBR Green I lysis buffer (2X SYBR Green I, 20 mM Tris base pH 7.5, 20 mM EDTA, 0.008% w/v saponin, 0.08% w/v Triton X-100).

[1] = In vitro cytotoxicity evaluation (MTT); format: cell-based; conditions: human
Description: Triplicate assays were performed for each sample. Each plate-well was then microscope-examined for possible precipitate formation before the medium was aspirated from the wells. 100 μL of MTT (3-(4,5-dimethyl-2-thiazolyl)-2,5-diphenyl-2H-tetrazolium bromide) solution (0.5 mg/mL in medium without FBS) were then added to each well. […] After this time, the MTT solution was removed and DMSO (100 μL) was added to dissolve the resulting blue formazan crystals. Plates were shaken vigorously (700 rpm) for 10 min. The absorbance was measured at 570 nm with 630 nm as reference wavelength using a BIO-TEK ELx808 Absorbance Microplate Reader (LabX, Midland, ON, Canada). DMSO was used as blank and doxorubicin (purchased from Sigma Aldrich) as positive control. Cell viability was calculated as percentage of control (cells incubated without compound). […] CC50 values represent the mean value calculated from three independent experiments.

[2] = Plasmodium falciparum, K1, 72 h, multi-resistant K1 P. falciparum strain, 72 h incubation
[3] = multi-resistant K1 P. falciparum strain, 72 h incubation

SMILES	EC50 (K1 P. falciparum strain; Plasmodium falciparum, K1, 72 h) [µM]	CC50 at 72 h [1] [µM]	EC50 (K1 P. falciparum strain; [2]) [µM]	melting point [°C]	SI (selectivity index = CC50/EC50) (K1 P. falciparum strain)	EC50 (K1 P. falciparum strain; [3]) [µM]	IC50 (K1 P. falciparum strain; Plasmodium falciparum) [µM]	activity against P. falciparum (in words) (K1 P. falciparum strain)
CCN(CC)CCCC(C)Nc1ccnc2cc(Cl)ccc12 (centres unmarked) [Chloroquine, reference compound]	0.8	–	–	–	–	–	–	–
COc1cccc2c1C(=O)c1c(O)c3c(c(O)c1C2=O)C[C@@](O)(C(=O)CO)C[C@@H]3O[C@H]1C[C@H](N)[C@H](O)[C@H](C)O1 [Doxorubicin, reference compound]	–	0.2	–	–	–	–	–	–
C[C@H]1c2cccc(O)c2C(=O)C2=C(O)[C@]3(O)C(=O)C(C(N)=O)=C(O)[C@@H](N(C)C)[C@@H]3[C@@H](O)[C@@H]21 [Doxycycline, reference compound]	–	20	6	–	–	–	–	–
O=C(Nc1nc(C(Cl)(Cl)Cl)nc2ccccc12)c1ccc(Cl)cc1 [Molecule 2, 4-Chloro-N-(2-Trichloromethylquinazolin-4-yl)benzamide]	–	21	–	199	–	–	–	–
O=C(c1ccc(Cl)cc1)N(C(=O)c1ccc(Cl)cc1)c1nc(C(Cl)(Cl)Cl)nc2ccccc12 [Molecule 3, 4-Chloro-N-(4-Chlorobenzoyl)-N-(2-Trichloromethylquinazolin-4-yl)benzamide]	–	20	1.46	218.2	13.7	–	–	–
O=C(Nc1nc(C(Cl)(Cl)Cl)nc2ccccc12)c1ccccc1 [Molecule 5, N-(2-Trichloromethylquinazolin-4-yl)benzamide]	–	24.2	1.76	183	13.8	–	–	–
O=C(Nc1nc(C(Cl)(Cl)Cl)nc2ccccc12)c1ccc([N+](=O)[O-])cc1 [Molecule 6, 4-Nitro-N-(2-Trichloromethylquinazolin-4-yl)benzamide]	–	22.1	4.18	214	5.3	–	–	–
O=C(Nc1nc(C(Cl)(Cl)Cl)nc2ccccc12)c1cccc([N+](=O)[O-])c1 [Molecule 7, 3-Nitro-N-(2-Trichloromethylquinazolin-4-yl)benzamide]	–	24.8	3.37	–	–	–	–	–
O=C(Nc1nc(C(Cl)(Cl)Cl)nc2ccccc12)c1ccc(F)cc1 [Molecule 9, 4-Fluoro-N-(2-Trichloromethylquinazolin-4-yl)benzamide]	–	29.4	≤ 2	166	–	1.34	–	–
O=C(Nc1nc(C(Cl)(Cl)Cl)nc2ccccc12)c1cccc(F)c1 [Molecule 10, 3-Fluoro-N-(2-Trichloromethylquinazolin-4-yl)benzamide]	–	19.9	2.86	152	6.9	–	–	–
O=C(Nc1nc(C(Cl)(Cl)Cl)nc2ccccc12)c1cccc(Cl)c1 [Molecule 12, 3-Chloro-N-(2-Trichloromethylquinazolin-4-yl)benzamide]	–	16.4	1.54	–	–	–	–	–
O=C(Nc1nc(C(Cl)(Cl)Cl)nc2ccccc12)c1ccccc1Cl [Molecule 13, 2-Chloro-N-(2-Trichloromethylquinazolin-4-yl)benzamide]	–	27.3	9.04	–	–	–	–	–
O=C(Nc1nc(C(Cl)(Cl)Cl)nc2ccccc12)c1ccc(Br)cc1 [Molecule 14, 4-Bromo-N-(2-Trichloromethylquinazolin-4-yl)benzamide]	–	19.5	1.3	–	–	–	–	–
N#Cc1ccc(C(=O)Nc2nc(C(Cl)(Cl)Cl)nc3ccccc23)cc1 [Molecule 15, 4-Cyano-N-(2-Trichloromethylquinazolin-4-yl)benzamide]	–	31.4	3.5	–	–	–	–	–
COc1ccc(C(=O)Nc2nc(C(Cl)(Cl)Cl)nc3ccccc23)cc1 [Molecule 16, 4-Methoxy-N-(2-Trichloromethylquinazolin-4-yl)benzamide]	–	27.7	–	–	–	–	0.94	–
O=C(Nc1nc(C(Cl)(Cl)Cl)nc2ccccc12)c1cccnc1 [Molecule 18, N-(2-Trichloromethylquinazolin-4-yl)nicotinamide]	–	72.9	3.9	208	18.7	–	–	–
O=C(Nc1nc(C(Cl)(Cl)Cl)nc2ccccc12)c1ccncc1 [Molecule 19, N-(2-Trichloromethylquinazolin-4-yl)isonicotinamide]	–	22.8	1.8	151	12.7	–	–	–
CC(C)C(=O)Nc1nc(C(Cl)(Cl)Cl)nc2ccccc12 [Molecule 22, N-(2-Trichloromethylquinazolin-4-yl)isobutyramide]	–	> 31.2	3.5	161	>9.0	–	–	–
CC(C)(C)C(=O)Nc1nc(C(Cl)(Cl)Cl)nc2ccccc12 [Molecule 23, N-(2-Trichloromethylquinazolin-4-yl)pivalamide]	–	34.9	1.8	157	19.4	–	–	–
O=C(Nc1nc(C(Cl)(Cl)Cl)nc2ccccc12)C1CCCCC1 [Molecule 25, N-(2-Trichloromethylquinazolin-4-yl)cyclohexanecarboxamide]	–	> 15.6	2.4	214	>6.5	–	–	–
COc1nc(C(Cl)(Cl)Cl)nc2ccccc12 [Molecule 26, 4-Methoxy-2-Trichloromethylquinazoline]	–	39.3	7.1	83	5.5	–	–	–
CCCCOc1nc(C(Cl)(Cl)Cl)nc2ccccc12 [Molecule 29, 4-Butoxy-2-Trichloromethylquinazoline]	–	82.4	5.8	–	14.2	–	–	–
ClCCCCOc1nc(C(Cl)(Cl)Cl)nc2ccccc12 [Molecule 38, 4-(4-Chlorobutoxy)-2-Trichloromethylquinazoline]	–	50.5	4.3	–	11.7	–	–	–
ClC(Cl)(Cl)c1nc(OCCN2CCCCC2)c2ccccc2n1 [Molecule 43, 4-[2-(Piperidin-1-yl)ethoxy]-2-Trichloromethylquinazoline]	–	23.4	1.4	–	16.5	–	–	–
ClC(Cl)(Cl)c1nc(OCCN2CCCC2)c2ccccc2n1 [Molecule 44, 4-[2-(Pyrrolidin-1-yl)ethoxy]-2-Trichloromethylquinazoline]	–	43.7	≤ 2	–	–	1.3	–	–
COc1ccc(C(=O)Nc2nc(C)nc3ccccc23)cc1 [Molecule 45, 4-methoxy-N-(2-Methylquinazolin-4-yl)benzamide]	–	–	–	–	–	–	> 50	inactive
COc1ccc(C(=O)Nc2nc(C(F)(F)F)nc3ccccc23)cc1 [Molecule 46, 4-methoxy-N-(2-Trifluoromethylquinazolin-4-yl)benzamide]	–	–	–	190	–	–	> 50	inactive
CCN(CC)CCOc1nc(C)nc2ccccc12 [Molecule 47, N,N-Diethyl-2-[(2-Methylquinazolin-4-yl)oxy]ethanamine]	–	–	–	230	–	–	> 50	inactive
CCN(CC)CCOc1nc(C(F)(F)F)nc2ccccc12 [Molecule 48, N,N-Diethyl-2-[(2-Trifluoromethylquinazolin-4-yl)oxy]ethan-1-Amine]	–	–	–	–	–	–	> 50	inactive
CCN(CC)CCOc1ncnc2ccccc12 [Molecule 49, N,N-Diethyl-2-(Quinazolin-4-yloxy)ethanamine]	–	–	–	–	–	–	> 50	inactive
